This is an account of results in US7446195B2, “High affinity thiophene-based and furan-based kinase ligands” (Schering Corporation, priority 2005, dated 2008).

A value given as a limit tells only on which side of the number the result lay.

This test concerns the target CDK-2 (Homo sapiens, UniProt P24941). In words: CDK-2 inhibition (Table 1; fluorescence polarization displacement assay). In kind it is binding. The note with it: inhibitory effectiveness toward CDK-2. As for the experimental part: The affinity of lead inhibitors binding to CDK-2 and CDK-2/cyclin A were determined by measuring a Ki value using a fluorescence polarization displacement assay. The deacetylated form of compound BMS-250595 was reacted with Alexa Fluor 647 to generate a compound (BMS-Alexa Fluor647) that bound to both proteins and provided a signal for fluorescence polarization displacement. Binding assays were performed in a 384 well Costar NBS coated plate. A total volume of […] contained concentrations of CDK-2 or CDK-2/cyclin A at […], respectively. The concentration of BMS-Alexa Fluor647 was 50 nM. Serial dilutions of compounds were added to 12 wells. The final buffer concentration was 10 mM Hepes, pH 7.5, 150 mM NaCl, and 1 mM DTT. Samples were incubated at room temperature for 15 minutes and then read in an Analyst HT instrument using an excitation and emission wavelength of 580 and 680 nm, respectively. The […] curve fitting tool described by Zhang et al., 2004 (Zhang R., Mayhood T., Lipari P., Wang Y., Durkin D., Syto R., Gesell J., McNemar C., and Windsor W., Analytical Biochemistry 331 (2004) 138-146)
Take `COc1ccc(N(C)C(=O)c2ccc(C(=O)Nc3ccc(-n4cncn4)cc3)s2)cc1` [Compound 68]: the IC50 lay within 1 to 40 µM.
`O=C(Nc1ccncc1)c1ccc(C(=O)Nc2ccc(-n3cncn3)cc2)o1` [Compound 69] yielded an IC50 of 1 to 40 µM.
`CNCc1ccc(NC(=O)c2ccc(C(=O)Nc3ccc(-n4cncn4)c(F)c3)s2)c(C)c1` [Compound 70] displayed an IC50 of 1 to 40 µM.
`COc1ccc(NC(=O)c2ccc(C(=O)N3CCC(c4ccccn4)C3)s2)c(C)c1` (stereo not drawn) [Compound 71] came in with an IC50 of 1 to 40 µM.
The molecule `COc1ccc(N(C)C(=O)c2ccc(C(=O)Nc3ccc(-n4cncn4)cc3)s2)c(C)c1` [Compound 72] displayed an IC50 of 1 to 40 µM.
`O=C(Nc1ccc(-n2cncn2)cc1)c1ccc(C(=O)NC2CCCC2)s1` [Compound 73]: the 50% inhibitory concentration (IC50) lay in the range of 1 to 40 µM.
Next, `O=C(Nc1ccc(-n2cncn2)cc1)c1ccc(C(=O)N2CCc3ccccc3C2)s1` [Compound 74]: 1 to 40 µM; `COC(=O)c1cc(OC)ccc1NC(=O)c1ccc(C(=O)Nc2ccc(-n3cncn3)cc2)s1` [Compound 75]: 1 to 40 µM.
For `COc1ccc(C(=O)Nc2ccc(C(=O)N3CCC(Oc4cnccn4)CC3)s2)c(C)c1` [Compound 76], the IC50 was in the range of 1 to 40 µM.
The molecule `O=C(Nc1ccc(-n2cncn2)c(F)c1)c1ccc(C(=O)Nc2ccccc2-c2ccccc2)s1` [Compound 77] had a half-inhibitory concentration (IC50) of 1 to 40 µM.
With `O=C(NCCc1cccnc1)c1ccc(C(=O)Nc2ccc(-n3cncn3)cc2)s1` [Compound 78], the IC50 fell in the range of 1 to 40 µM.
In turn, `COc1ccc(NC(=O)c2ccc(C(=O)Nc3ccc(-n4cncn4)cc3)s2)c(C(=O)O)c1` [Compound 79] yielded a concentration for half-maximal inhibition (IC50) of 1 to 40 µM.
Take `O=C(Nc1ccc(-n2cncn2)cc1)c1ccc(C(=O)NC2CC2)s1` [Compound 80]: the IC50 was at least 40 µM.
Consider `CC(C)NC(=O)c1ccc(C(=O)Nc2ccc(-n3cncn3)cc2)s1` [Compound 81], for which the IC50 was at least 40 µM.
Next, `O=C(Nc1ccc(-n2cncn2)cc1)c1ccc(C(=O)NC2CCC2)s1` [Compound 82]: at least 40 µM; `CC(C)CNC(=O)c1ccc(C(=O)Nc2ccc(-n3cncn3)cc2)s1` [Compound 83]: at least 40 µM.
For the molecule `O=C(Nc1ccc(-n2cncn2)cc1)c1ccc(C(=O)N2CCCCC2)s1` [Compound 84], the IC50 is at least 40 µM.
In turn, `O=C(Nc1ccc(-n2cncn2)cc1)c1ccc(C(=O)N2CCOCC2)s1` [Compound 85] had an IC50 of at least 40 µM.
`CCCCN(C)C(=O)c1ccc(C(=O)Nc2ccc(-n3cncn3)cc2)s1` [Compound 86]: the IC50 was at least 40 µM.
Consider `CN(C)CCNC(=O)c1ccc(C(=O)Nc2ccc(-n3cncn3)cc2)s1` [Compound 87], for which the IC50 was at least 40 µM.
`COC[C@H](C)NC(=O)c1ccc(C(=O)Nc2ccc(-n3cncn3)cc2)s1` [Compound 88]: the IC50 was at least 40 µM.
Molecule `O=C(Nc1ccccc1)c1ccc(C(=O)Nc2ccc(-n3cncn3)cc2)s1` [Compound 89] showed an IC50 of at least 40 µM.
Consider `O=C(Nc1ccc(-n2cncn2)cc1)c1ccc(C(=O)Nc2ccccn2)s1` [Compound 90], for which the IC50 was at least 40 µM.
For `O=C(Nc1ccc(-n2cncn2)cc1)c1ccc(C(=O)NC2CCCCC2)s1` [Compound 91], the IC50 is at least 40 µM.
Then `O=C(Nc1ccc(-n2cncn2)cc1)c1ccc(C(=O)Nc2nccs2)s1` [Compound 92], with at least 40 µM; and `O=C(NC[C@H]1CCCO1)c1ccc(C(=O)Nc2ccc(-n3cncn3)cc2)s1` [Compound 93], with at least 40 µM; and `O=C(NC[C@@H]1CCCO1)c1ccc(C(=O)Nc2ccc(-n3cncn3)cc2)s1` [Compound 94], with at least 40 µM.
The molecule `CC(CN(C)C)NC(=O)c1ccc(C(=O)Nc2ccc(-n3cncn3)cc2)s1` (stereo not drawn) [Compound 95] showed a concentration for half-maximal inhibition (IC50) of at least 40 µM.
Next, `CN(C(=O)c1ccc(C(=O)Nc2ccc(-n3cncn3)cc2)s1)c1ccccc1` [Compound 96]: at least 40 µM; `O=C(NCc1ccccn1)c1ccc(C(=O)Nc2ccc(-n3cncn3)cc2)s1` [Compound 97]: at least 40 µM; `O=C(NCc1ccncc1)c1ccc(C(=O)Nc2ccc(-n3cncn3)cc2)s1` [Compound 98]: at least 40 µM.
As for `O=C(NCc1cccnc1)c1ccc(C(=O)Nc2ccc(-n3cncn3)cc2)s1` [Compound 99], the IC50 is at least 40 µM.
As to `Cc1ccnc(NC(=O)c2ccc(C(=O)Nc3ccc(-n4cncn4)cc3)s2)c1` [Compound 100], the IC50 was at least 40 µM.
With `Cc1cccc(NC(=O)c2ccc(C(=O)Nc3ccc(-n4cncn4)cc3)s2)n1` [Compound 101], the concentration for half-maximal inhibition (IC50) is at least 40 µM.
Take `CN(Cc1ccco1)C(=O)c1ccc(C(=O)Nc2ccc(-n3cncn3)cc2)s1` [Compound 102]: the IC50 is at least 40 µM.
Consider `O=C(NCCc1c[nH]cn1)c1ccc(C(=O)Nc2ccc(-n3cncn3)cc2)s1` [Compound 103], for which the IC50 was at least 40 µM.
`O=C(Nc1ccc(-n2cncn2)cc1)c1ccc(C(=O)N[C@@H]2CC3CCC2C3)s1` (stereo partly drawn) [Compound 104] returned a half-maximal inhibitory concentration (IC50) of at least 40 µM.
The molecule `Cc1cc(CNC(=O)c2ccc(C(=O)Nc3ccc(-n4cncn4)cc3)s2)no1` [Compound 105] yielded an IC50 of at least 40 µM.
Molecule `O=C(NCC1CCCCC1)c1ccc(C(=O)Nc2ccc(-n3cncn3)cc2)s1` [Compound 106] had a half-inhibitory concentration (IC50) of at least 40 µM.
Consider `CN(Cc1ccccc1)C(=O)c1ccc(C(=O)Nc2ccc(-n3cncn3)cc2)s1` [Compound 107], for which the IC50 is at least 40 µM.
Then `O=C(NCCc1ccccc1)c1ccc(C(=O)Nc2ccc(-n3cncn3)cc2)s1` [Compound 108], with at least 40 µM; and `Cc1cc(C)nc(NC(=O)c2ccc(C(=O)Nc3ccc(-n4cncn4)cc3)s2)c1` [Compound 109], with at least 40 µM; and `COc1ccccc1NC(=O)c1ccc(C(=O)Nc2ccc(-n3cncn3)cc2)s1` [Compound 110], with at least 40 µM.
In the case of `Cc1cnc(CNC(=O)c2ccc(C(=O)Nc3ccc(-n4cncn4)cc3)s2)cn1` [Compound 111], the IC50 is at least 40 µM.
Take `C[C@@H](NC(=O)c1ccc(C(=O)Nc2ccc(-n3cncn3)cc2)s1)C1CCCCC1` [Compound 112]: the IC50 is at least 40 µM.
As for `O=C(Nc1ccc(-n2cncn2)cc1)c1ccc(C(=O)N[C@@H]2CCc3ccccc32)s1` [Compound 113], the IC50 is at least 40 µM.
`O=C(Nc1ccc(-n2cncn2)cc1)c1ccc(C(=O)NC2Cc3ccccc3C2)s1` [Compound 114] showed an IC50 of at least 40 µM.
`O=C(NCc1ccc2c(c1)CCO2)c1ccc(C(=O)Nc2ccc(-n3cncn3)cc2)s1` [Compound 115] returned a half-maximal inhibitory concentration (IC50) of at least 40 µM.
Next, `O=C(Nc1ccc(-n2cncn2)cc1)c1ccc(C(=O)N2CCCC(c3ccccc3)C2)s1` (stereo not drawn) [Compound 116]: at least 40 µM.
`O=C(Nc1ccc(-n2cncn2)cc1)c1ccc(C(=O)N2CCN(c3ccccc3)CC2)s1` [Compound 117] gave an IC50 of at least 40 µM.
For `NS(=O)(=O)c1ccc(NC(=O)c2ccc(C(=O)Nc3ccc(-n4cncn4)cc3)s2)cc1` [Compound 118], the IC50 was at least 40 µM.
Then `COc1cccc(C2CCN(C(=O)c3ccc(C(=O)Nc4ccc(-n5cncn5)cc4)s3)C2)c1` (stereo not drawn) [Compound 119], with at least 40 µM.
`COc1ccc(NC(=O)c2ccc(C(=O)Nc3ccc(N4CCOCC4)cc3)s2)c(C)c1` [Compound 120] yielded an IC50 of at least 40 µM.
Molecule `COc1ccc(NC(=O)c2ccc(C(=O)Nc3ccc(N4CCCCC4)cc3)s2)c(C)c1` [Compound 121] had an IC50 of at least 40 µM.
Regarding `COc1ccc(NC(=O)c2ccc(C(=O)Nc3ccc(N4CCNCC4)cc3)s2)c(C)c1` [Compound 122], the IC50 was at least 40 µM.
Next, `COc1ccc(NC(=O)c2ccc(C(=O)Nc3ccc(N4CCN(C)CC4)cc3)s2)c(C)c1` [Compound 123]: at least 40 µM.
On to `COc1ccc(NC(=O)c2ccc(C(=O)Nc3ccc(N(C)C)cc3)s2)c(C)c1` [Compound 124], for which the IC50 is at least 40 µM.
`COc1ccc(NC(=O)c2ccc(C(=O)Nc3ccc(OCCN(C)C)cc3)s2)c(C)c1` [Compound 125] showed an IC50 of at least 40 µM.
`COC(=O)c1ccc(NC(=O)c2ccc(C(=O)Nc3ccc(OC)cc3C)s2)cc1` [Compound 126] yielded an IC50 of at least 40 µM.
Then `COc1ccc(NC(=O)c2ccc(C(=O)Nc3ccc(-c4csnn4)cc3)s2)c(C)c1` [Compound 127], with at least 40 µM; and `COc1ccc(NC(=O)c2ccc(C(=O)Nc3ccc(-n4cccn4)cc3)s2)c(C)c1` [Compound 129], with at least 40 µM; and `COc1ccc(NC(=O)c2ccc(C(=O)Nc3ccc4c(c3)OCO4)s2)c(C)c1` [Compound 130], with at least 40 µM.
`COc1ccc(NC(=O)c2ccc(C(=O)Nc3ccc(-c4cnco4)cc3)s2)c(C)c1` [Compound 131] returned an IC50 of at least 40 µM.
`COc1ccc(NC(=O)c2ccc(C(=O)Nc3ccc(CN)cc3)s2)c(C)c1` [Compound 132] gave an IC50 of at least 40 µM.
Next, `COc1ccc(NC(=O)c2ccc(C(=O)Nc3ccc(N4CCOCC4)nc3)s2)c(C)c1` [Compound 133]: at least 40 µM.
As to `COc1ccc(NC(=O)c2ccc(C(=O)Nc3cccc(-c4cnco4)c3)s2)c(C)c1` [Compound 134], the IC50 was at least 40 µM.
On to `C[C@H](O)CNC(=O)c1ccc(C(=O)Nc2ccc(-n3cncn3)cc2)s1` [Compound 135], for which the IC50 was at least 40 µM.
As to `O=C(Nc1ccc(-n2cncn2)cc1)c1ccc(C(=O)N[C@@H]2CCNC2)s1` [Compound 136], the IC50 was at least 40 µM.
For the molecule `CN1CCN(C(=O)c2ccc(C(=O)Nc3ccc(-n4cncn4)cc3)s2)CC1` [Compound 137], the IC50 was at least 40 µM.

As a reminder, the IC50 is the concentration needed to halve the response being measured.
